Patent publication EP0183174A2, “Substituted phenoxy urea, processes for its preparation and herbicide containing it as active ingredient” (KUMIAI CHEMICAL INDUSTRY CO., LTD., priority 1984, dated 1986)

Tests used:
barnyardgrass = assay: Test Example 2: herbicidal test for selectivity between rice and barnyardgrass (herbicidal effects); format: in vivo, Echinochloa crus-galli L.; settings: barnyardgrass of 2-leaf stage, thirty days after application
Description: (§1) Into each 1/5000 are Wager pot, paddy soil was filled and puddled, then seeds of barnyardgrass were sown and grown until they reached 2-leaf stage. The barnyardgrass of 2-leaf stage was thinned out to adjust the number of barnyardgrass to fifteen per pot, and rice seedlings of 2-leaf stage were transplanted in the same pot. […] Thereafter, they were grown in a green house, and thirty days after the application, the herbicidal effects and phytotoxicity were evaluated in accordance with the standards as identified in Table 5.

rice flatsedge = assay: Test Example 3: herbicidal test by upland soil treatment; format: in vivo, Cy^perus iria L.; set-up: key: 5: Withered; 4.5: Herbicidal effect (or phytotoxicity) in a range of 90 to 99%; 4: Herbicidal effect (or phytotoxicity) in a range of 80 to 89%; 3.5: Herbicidal effect (or phytotoxicity) in a range of 70 to 79%; 3: Herbicidal effect (or phytotoxicity) in a range of 60 to 69%; 2.5: Herbicidal effect (or phytotoxicity) in a range of 50 to 59%; 2: Herbicidal effect (or phytotoxicity) in a range of 40 to 49%; 1.5: Herbicidal effect (or phytotoxicity) in a range of 30 to 39%; 1: Herbicidal effect (or phytotoxicity) in a range of 20 to 29%; 0.5: Herbicidal effect (or phytotoxicity) in a range of 1 to 19%; 0: No herbicidal effect (or no phytotoxicity); settings: evaluated twenty days after application
Description: (§2) Into each plastic pot of 600 cm^2, upland soil was filled, then seeds of barnyardgrass, crabgrass, green foxtail, redroot pigweed, rice flatsedge, rice, wheat, maize, soybean, cotton and sugar beet were sown, and they were covered with soil. A predetermined amount of the wettable powder prepared from the test compound in accordance with Formulation Example 3 and diluted with water, was uniformly applied to the surface of the soil at an application rate of 1000 liter/hectare by means of a small size spray. They were grown in a greenhouse, and twenty days after the application, the herbicidal effects and phytotoxicity were evaluated in accordance with the standards as identified in Table 5.

Paddy rice = assay: Test Example 2: herbicidal test for selectivity between rice and barnyardgrass (phytotoxicity); format: in vivo; settings: transplanted rice seedlings of 2-leaf stage, thirty days after application
Description: as §1

green foxtail = assay: Test Example 3: herbicidal test by upland soil treatment; format: in vivo, Setaria viridis L.; set-up: key: 5: Withered; 4.5: Herbicidal effect (or phytotoxicity) in a range of 90 to 99%; 4: Herbicidal effect (or phytotoxicity) in a range of 80 to 89%; 3.5: Herbicidal effect (or phytotoxicity) in a range of 70 to 79%; 3: Herbicidal effect (or phytotoxicity) in a range of 60 to 69%; 2.5: Herbicidal effect (or phytotoxicity) in a range of 50 to 59%; 2: Herbicidal effect (or phytotoxicity) in a range of 40 to 49%; 1.5: Herbicidal effect (or phytotoxicity) in a range of 30 to 39%; 1: Herbicidal effect (or phytotoxicity) in a range of 20 to 29%; 0.5: Herbicidal effect (or phytotoxicity) in a range of 1 to 19%; 0: No herbicidal effect (or no phytotoxicity); settings: evaluated twenty days after application
Description: as §2

rice = assay: Test Example 3: herbicidal test by upland soil treatment (phytotoxicity); format: in vivo; set-up: key: 5: Withered; 4.5: Herbicidal effect (or phytotoxicity) in a range of 90 to 99%; 4: Herbicidal effect (or phytotoxicity) in a range of 80 to 89%; 3.5: Herbicidal effect (or phytotoxicity) in a range of 70 to 79%; 3: Herbicidal effect (or phytotoxicity) in a range of 60 to 69%; 2.5: Herbicidal effect (or phytotoxicity) in a range of 50 to 59%; 2: Herbicidal effect (or phytotoxicity) in a range of 40 to 49%; 1.5: Herbicidal effect (or phytotoxicity) in a range of 30 to 39%; 1: Herbicidal effect (or phytotoxicity) in a range of 20 to 29%; 0.5: Herbicidal effect (or phytotoxicity) in a range of 1 to 19%; 0: No herbicidal effect (or no phytotoxicity); settings: evaluated twenty days after application
Description: as §2

cotton = assay: as above; format: in vivo; set-up: key: 5: Withered; 4.5: Herbicidal effect (or phytotoxicity) in a range of 90 to 99%; 4: Herbicidal effect (or phytotoxicity) in a range of 80 to 89%; 3.5: Herbicidal effect (or phytotoxicity) in a range of 70 to 79%; 3: Herbicidal effect (or phytotoxicity) in a range of 60 to 69%; 2.5: Herbicidal effect (or phytotoxicity) in a range of 50 to 59%; 2: Herbicidal effect (or phytotoxicity) in a range of 40 to 49%; 1.5: Herbicidal effect (or phytotoxicity) in a range of 30 to 39%; 1: Herbicidal effect (or phytotoxicity) in a range of 20 to 29%; 0.5: Herbicidal effect (or phytotoxicity) in a range of 1 to 19%; 0: No herbicidal effect (or no phytotoxicity); settings: evaluated twenty days after application
Description: as §2

wheat = assay: as above; format: in vivo; set-up: key: 5: Withered; 4.5: Herbicidal effect (or phytotoxicity) in a range of 90 to 99%; 4: Herbicidal effect (or phytotoxicity) in a range of 80 to 89%; 3.5: Herbicidal effect (or phytotoxicity) in a range of 70 to 79%; 3: Herbicidal effect (or phytotoxicity) in a range of 60 to 69%; 2.5: Herbicidal effect (or phytotoxicity) in a range of 50 to 59%; 2: Herbicidal effect (or phytotoxicity) in a range of 40 to 49%; 1.5: Herbicidal effect (or phytotoxicity) in a range of 30 to 39%; 1: Herbicidal effect (or phytotoxicity) in a range of 20 to 29%; 0.5: Herbicidal effect (or phytotoxicity) in a range of 1 to 19%; 0: No herbicidal effect (or no phytotoxicity); settings: evaluated twenty days after application
Description: as §2

sugar beet = assay: as above; format: in vivo; settings: evaluated twenty days after application
Description: as §2

SMILES | Herbicidal effects Barnyard grass (barnyardgrass; Dose 0.25 kg/Ha) | Herbicidal effects Barnyard grass (barnyardgrass; Dose 0.5 kg/Ha) | Herbicidal effects Barnyard grass (barnyardgrass; Dose 1 kg/Ha) | Herbicidal effects Rice flatsedge (rice flatsedge; Dose 1 kg/HA) | Herbicidal effects Rice flatsedge (rice flatsedge; Dose 4 kg/HA) | Phytotoxicity Paddy rice (Paddy rice; Dose 0.25 kg/Ha) | Phytotoxicity Paddy rice (Paddy rice; Dose 0.5 kg/Ha) | Phytotoxicity Paddy rice (Paddy rice; Dose 1 kg/Ha) | Herbicidal effects Green foxtail (green foxtail; Dose 1 kg/HA) | Herbicidal effects Green foxtail (green foxtail; Dose 4 kg/HA) | Phytotoxicity Rice (rice; Dose 1 kg/HA) | Phytotoxicity Rice (rice; Dose 4 kg/HA) | Phytotoxicity Cotton (cotton; Dose 1 kg/HA) | Phytotoxicity Cotton (cotton; Dose 4 kg/HA) | Phytotoxicity Wheat (wheat; Dose 1 kg/HA) | Phytotoxicity Wheat (wheat; Dose 4 kg/HA) | Phytotoxicity Sugar beet (sugar beet; Dose 1 kg/HA) | Phytotoxicity Sugar beet (sugar beet; Dose 4 kg/HA)
CN(C)C(=O)NOc1cc(Cl)ccc1Cl [Compound No. 1, 3-(2,5-Dichlorophenoxy)-1,1-dimethyl urea] | 5 | 5 | 5 | 5 | 5 | 0 | 0 | 1 (Herbicidal effect (or phytotoxicity) in a range of 20 to 29%) | 5 | 5 | 0 | 0 | 0 | 0 | 0 | 0 | 2 (Herbicidal effect (or phytotoxicity) in a range of 40 to 49%) | 3 (Herbicidal effect (or phytotoxicity) in a range of 60 to 69%)
CC(C)N(C)C(=O)NOc1cc(Cl)cc(Cl)c1 [Compound No. 186, 3-(3,5-Dichlorophenoxy)-1-isopropyl-1-methyl urea trichloroacetate] | 5 | 5 |  | 5 | 5 | 0 | 1 (Herbicidal effect (or phytotoxicity) in a range of 20 to 29%) |  |  |  |  |  |  |  |  |  |  | 
CON(C)C(=O)NOc1cc(Cl)ccc1Cl [Compound No. 242, 3-(2,5-Dichlorophenoxy)-1-methoxy-1-methyl urea] |  |  |  | 5 | 5 |  |  |  |  |  |  |  |  |  |  |  |  | 
COCCNC(=O)NOc1cc(Cl)ccc1Cl [Compound No. 243] |  |  |  | 5 | 5 |  |  |  |  |  |  |  |  |  |  |  |  | 
